# Assays:
# Macrophage [1] = assay: Antiinflammatory activity in human primary macrophages assessed as effect on LPS-induced FAM3B gene expression at 30 uM measured after 2 hrs by RT-PCR array (reference value: 996 a.u.); type: functional
# Macrophage [2] = assay: Antiinflammatory activity in human primary macrophages assessed as effect on LPS-induced IFNA1 gene expression at 30 uM measured after 2 hrs by RT-PCR array (reference value: 462 a.u.); type: functional
# Macrophage [3] = assay: Antiinflammatory activity in human primary macrophages assessed as effect on LPS-induced IL17C gene expression at 30 uM measured after 2 hrs by RT-PCR array (reference value: 157 a.u.); type: functional
# Macrophage [4] = assay: Antiinflammatory activity in human primary macrophages assessed as effect on LPS-induced IL20 gene expression at 30 uM measured after 2 hrs by RT-PCR array (reference value: 2040 a.u.); type: functional
# Macrophage [5] = assay: Antiinflammatory activity in human primary macrophages assessed as effect on LPS-induced IL8 gene expression at 30 uM measured after 2 hrs by RT-PCR array (reference value: 11155386 a.u.); type: functional
# Macrophage [6] = assay: Antiinflammatory activity in human primary macrophages assessed as effect on LPS-induced LTB gene expression at 30 uM measured after 2 hrs by RT-PCR array (reference value: 6025 a.u.); type: functional
# Macrophage [7] = assay: Antiinflammatory activity in human primary macrophages assessed as effect on LPS-induced NODAL gene expression at 30 uM measured after 2 hrs by RT-PCR array (reference value: 125 a.u.); type: functional
# Macrophage [8] = assay: Antiinflammatory activity in human primary macrophages assessed as effect on LPS-induced TGFA gene expression at 30 uM measured after 2 hrs by RT-PCR array (reference value: 3224 a.u.); type: functional
# Macrophage [9] = assay: Antiinflammatory activity in human primary macrophages assessed as effect on LPS-induced TGFB1 gene expression at 30 uM measured after 2 hrs by RT-PCR array (reference value: 72816 a.u.); type: functional
# Macrophage [10] = assay: Antiinflammatory activity in human primary macrophages assessed as effect on LPS-induced TNFRSF11B gene expression at 30 uM measured after 2 hrs by RT-PCR array (reference value: 1609 a.u.); type: functional
# Macrophage [11] = assay: Antiinflammatory activity in human primary macrophages assessed as effect on LPS-induced TNFSF10 gene expression at 30 uM measured after 2 hrs by RT-PCR array (reference value: 221027 a.u.); type: functional
# Macrophage [12] = assay: Antiinflammatory activity in human primary macrophages assessed as effect on LPS-induced TNFSF12 gene expression at 30 uM measured after 2 hrs by RT-PCR array (reference value: 12514 a.u.); type: functional
# Macrophage [13] = assay: Antiinflammatory activity in human primary macrophages assessed as effect on LPS-induced TNFSF14 gene expression at 30 uM measured after 2 hrs by RT-PCR array (reference value: 5963 a.u.); type: functional
# Histone deacetylase 11 = Histone deacetylase 11 (Homo sapiens, UniProt Q96DB2); assay: Inhibition of human HDAC11 by FLINT assay
# [14] = molecular target: 5-hydroxytryptamine receptor 1B (Homo sapiens, UniProt P28222); assay: Agonist activity at human 5-HT1B by SPA; type: functional
# [15] = molecular target: T1, 5-hydroxytryptamine receptor 2C (Homo sapiens, UniProt P28335); assay: Agonist activity at human 5-HT2C by intracellular Ca luminescence assay; type: functional, cell-based
# T1 sequence (P28335 whole entry): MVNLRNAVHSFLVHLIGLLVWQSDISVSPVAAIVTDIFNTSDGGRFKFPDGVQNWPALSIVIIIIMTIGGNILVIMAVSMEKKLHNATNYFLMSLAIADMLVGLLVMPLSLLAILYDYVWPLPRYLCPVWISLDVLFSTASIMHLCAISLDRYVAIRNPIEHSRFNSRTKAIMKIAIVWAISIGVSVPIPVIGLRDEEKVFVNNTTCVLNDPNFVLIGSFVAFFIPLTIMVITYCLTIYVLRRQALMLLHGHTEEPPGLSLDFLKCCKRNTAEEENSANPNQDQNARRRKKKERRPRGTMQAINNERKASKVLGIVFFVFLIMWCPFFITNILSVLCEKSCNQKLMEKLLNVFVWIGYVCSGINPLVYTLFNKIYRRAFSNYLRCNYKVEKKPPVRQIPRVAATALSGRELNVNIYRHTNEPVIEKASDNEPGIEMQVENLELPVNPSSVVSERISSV
# [16] = Agonist activity at human 5-HT3 by intracellular Ca fluorescence assay; type: cell-based
# [17] = molecular target: Alpha-2C adrenergic receptor (Homo sapiens, UniProt P18825); assay: Agonist activity at human alpha 2C adrenoceptor by TR-FRET assay
# Cannabinoid receptor 2 = Cannabinoid receptor 2 (Homo sapiens, UniProt P34972); assay: Agonist activity at human cannabinoid CB2 receptor by Yeast FDGlu assay; type: functional
# D(2) dopamine receptor [18] = molecular target: T2, D(2) dopamine receptor (Homo sapiens, UniProt P14416); assay: Antagonist activity at human dopamine 2 receptor by SPA; type: functional
# D(2) dopamine receptor [19] = molecular target: T2, D(2) dopamine receptor; assay: Agonist activity at human dopamine 2 by SPA; type: functional
# [20] = molecular target: T3, Muscarinic acetylcholine receptor M2 (Homo sapiens, UniProt P08172); assay: Antagonist activity at human CHRM2 by intracellular Ca fluorescence assay; type: functional, cell-based
# T3 sequence (P08172 whole entry): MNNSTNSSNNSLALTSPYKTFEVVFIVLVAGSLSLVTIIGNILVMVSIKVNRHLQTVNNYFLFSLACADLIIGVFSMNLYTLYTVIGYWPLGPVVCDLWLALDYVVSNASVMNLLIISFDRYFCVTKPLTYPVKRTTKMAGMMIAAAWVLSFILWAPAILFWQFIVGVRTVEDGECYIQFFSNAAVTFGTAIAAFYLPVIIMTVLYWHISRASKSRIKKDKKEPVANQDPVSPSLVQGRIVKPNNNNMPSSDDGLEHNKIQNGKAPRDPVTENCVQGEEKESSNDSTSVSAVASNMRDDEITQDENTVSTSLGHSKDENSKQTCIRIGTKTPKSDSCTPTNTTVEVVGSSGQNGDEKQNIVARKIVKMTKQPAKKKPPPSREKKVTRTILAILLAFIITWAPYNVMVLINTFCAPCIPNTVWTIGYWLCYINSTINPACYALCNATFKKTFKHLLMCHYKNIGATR
# Mu-type opioid receptor = Mu-type opioid receptor (Homo sapiens, UniProt P35372); assay: Antagonist activity at human OPRM-1 by SPA; type: functional
# hERG (KCNH2) [21] = molecular target: T4, hERG (KCNH2) (Homo sapiens, UniProt Q12809); assay: Binding affinity to human ERG by FP binding assay; type: toxicity
# hERG (KCNH2) [22] = molecular target: T4, hERG (KCNH2); assay: Blockade of human KCNH2 by electrophysiology assay; type: toxicity
# [23] = molecular target: Voltage-gated potassium channel, IKs; KCNQ1(Kv7.1)/KCNE1(MinK) (Homo sapiens, UniProt P51787+P15382); assay: Blockade of human KCNQ1/KCNE1 by electrophysiology assay; type: protein-complex assay
# [24] = molecular target: Sodium-dependent noradrenaline transporter (Homo sapiens, UniProt P23975); assay: Binding affinity to human NET by SPA
# OATP1B1 (SLCO1B1) = OATP1B1 (SLCO1B1) (Homo sapiens, UniProt Q9Y6L6); assay: Blockade of human OATP1B1 by imaging analysis
# OATP1B1 (SLCO1B1), sequence (Q9Y6L6 whole entry): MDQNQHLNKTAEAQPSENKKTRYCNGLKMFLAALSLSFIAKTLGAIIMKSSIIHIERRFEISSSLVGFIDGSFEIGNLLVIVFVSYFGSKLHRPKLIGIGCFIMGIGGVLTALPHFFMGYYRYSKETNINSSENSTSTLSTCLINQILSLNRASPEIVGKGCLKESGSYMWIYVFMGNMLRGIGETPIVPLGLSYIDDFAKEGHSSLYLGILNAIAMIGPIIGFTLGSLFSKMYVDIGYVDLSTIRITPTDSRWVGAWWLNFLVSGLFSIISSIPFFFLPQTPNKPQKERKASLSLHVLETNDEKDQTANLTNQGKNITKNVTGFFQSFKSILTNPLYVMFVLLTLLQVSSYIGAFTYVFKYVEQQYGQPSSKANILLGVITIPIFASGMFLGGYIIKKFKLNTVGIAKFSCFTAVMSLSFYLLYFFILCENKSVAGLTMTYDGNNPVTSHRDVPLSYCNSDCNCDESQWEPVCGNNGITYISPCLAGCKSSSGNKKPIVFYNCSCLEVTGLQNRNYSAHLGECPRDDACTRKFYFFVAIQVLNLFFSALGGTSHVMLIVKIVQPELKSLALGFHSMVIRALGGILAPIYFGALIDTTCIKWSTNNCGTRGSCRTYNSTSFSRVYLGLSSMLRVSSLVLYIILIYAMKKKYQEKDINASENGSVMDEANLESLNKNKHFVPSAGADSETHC
# T4 sequence (Q12809 whole entry): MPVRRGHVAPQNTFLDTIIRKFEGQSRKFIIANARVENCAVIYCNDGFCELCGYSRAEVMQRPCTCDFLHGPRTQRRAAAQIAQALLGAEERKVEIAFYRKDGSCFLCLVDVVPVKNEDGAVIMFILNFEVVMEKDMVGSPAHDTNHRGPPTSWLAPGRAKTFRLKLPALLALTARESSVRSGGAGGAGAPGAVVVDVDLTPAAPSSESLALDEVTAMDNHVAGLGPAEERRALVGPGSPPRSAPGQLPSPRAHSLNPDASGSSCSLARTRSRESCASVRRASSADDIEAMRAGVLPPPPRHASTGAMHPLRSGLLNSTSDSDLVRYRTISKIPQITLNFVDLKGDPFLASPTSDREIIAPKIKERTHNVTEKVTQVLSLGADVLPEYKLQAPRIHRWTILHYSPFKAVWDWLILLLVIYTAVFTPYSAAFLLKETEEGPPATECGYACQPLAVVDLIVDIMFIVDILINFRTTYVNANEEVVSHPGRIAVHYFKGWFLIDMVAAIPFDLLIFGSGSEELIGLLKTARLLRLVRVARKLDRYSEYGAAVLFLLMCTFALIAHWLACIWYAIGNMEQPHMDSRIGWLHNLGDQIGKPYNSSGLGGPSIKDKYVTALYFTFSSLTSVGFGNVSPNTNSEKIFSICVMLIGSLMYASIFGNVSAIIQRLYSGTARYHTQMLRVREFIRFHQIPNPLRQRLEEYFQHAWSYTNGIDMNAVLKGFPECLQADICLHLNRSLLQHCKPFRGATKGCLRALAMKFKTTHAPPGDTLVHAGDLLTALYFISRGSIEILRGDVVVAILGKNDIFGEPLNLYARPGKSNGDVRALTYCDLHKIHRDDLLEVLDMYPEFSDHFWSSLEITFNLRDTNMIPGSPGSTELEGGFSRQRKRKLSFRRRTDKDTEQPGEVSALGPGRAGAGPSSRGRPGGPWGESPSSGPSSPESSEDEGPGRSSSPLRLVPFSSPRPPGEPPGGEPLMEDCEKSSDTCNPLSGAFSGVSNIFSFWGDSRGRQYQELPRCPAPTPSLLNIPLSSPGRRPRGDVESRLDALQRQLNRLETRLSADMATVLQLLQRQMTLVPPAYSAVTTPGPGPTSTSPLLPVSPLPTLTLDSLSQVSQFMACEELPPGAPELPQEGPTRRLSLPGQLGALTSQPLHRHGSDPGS
# T2 sequence (P14416 whole entry): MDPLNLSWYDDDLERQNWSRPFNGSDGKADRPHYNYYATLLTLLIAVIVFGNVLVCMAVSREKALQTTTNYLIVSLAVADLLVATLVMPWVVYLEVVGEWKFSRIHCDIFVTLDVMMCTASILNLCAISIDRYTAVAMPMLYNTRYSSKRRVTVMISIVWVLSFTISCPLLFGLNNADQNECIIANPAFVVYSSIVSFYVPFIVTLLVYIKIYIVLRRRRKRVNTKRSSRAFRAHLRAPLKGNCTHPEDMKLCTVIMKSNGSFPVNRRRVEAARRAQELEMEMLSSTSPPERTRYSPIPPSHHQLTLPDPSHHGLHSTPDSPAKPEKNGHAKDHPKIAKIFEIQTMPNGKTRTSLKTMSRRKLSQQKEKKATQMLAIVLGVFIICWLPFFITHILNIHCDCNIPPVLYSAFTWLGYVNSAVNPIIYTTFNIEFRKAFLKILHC
# Mu-type opioid receptor, sequence (P35372 whole entry): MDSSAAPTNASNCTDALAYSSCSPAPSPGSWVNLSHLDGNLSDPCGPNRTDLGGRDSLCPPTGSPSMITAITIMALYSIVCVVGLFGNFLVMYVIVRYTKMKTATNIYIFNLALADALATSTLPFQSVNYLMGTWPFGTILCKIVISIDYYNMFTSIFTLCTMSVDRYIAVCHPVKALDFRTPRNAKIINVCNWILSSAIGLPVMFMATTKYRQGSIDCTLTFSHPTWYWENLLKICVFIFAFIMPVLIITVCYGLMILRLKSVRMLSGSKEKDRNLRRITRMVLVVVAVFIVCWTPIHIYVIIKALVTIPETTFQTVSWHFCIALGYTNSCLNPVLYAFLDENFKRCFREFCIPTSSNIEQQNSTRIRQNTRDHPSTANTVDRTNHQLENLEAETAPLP
# 5-hydroxytryptamine receptor 1B, sequence (P28222 whole entry): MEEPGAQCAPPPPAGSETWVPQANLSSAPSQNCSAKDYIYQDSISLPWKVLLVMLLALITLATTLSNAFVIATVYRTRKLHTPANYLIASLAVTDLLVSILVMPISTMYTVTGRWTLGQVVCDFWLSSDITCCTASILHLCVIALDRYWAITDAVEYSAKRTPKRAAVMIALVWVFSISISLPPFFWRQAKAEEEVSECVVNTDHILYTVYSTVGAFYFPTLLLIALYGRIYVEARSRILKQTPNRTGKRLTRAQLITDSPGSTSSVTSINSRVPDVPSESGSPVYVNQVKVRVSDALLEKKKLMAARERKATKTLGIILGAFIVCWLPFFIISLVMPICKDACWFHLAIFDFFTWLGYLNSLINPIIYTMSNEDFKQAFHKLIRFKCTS
# Histone deacetylase 11, sequence (Q96DB2 whole entry): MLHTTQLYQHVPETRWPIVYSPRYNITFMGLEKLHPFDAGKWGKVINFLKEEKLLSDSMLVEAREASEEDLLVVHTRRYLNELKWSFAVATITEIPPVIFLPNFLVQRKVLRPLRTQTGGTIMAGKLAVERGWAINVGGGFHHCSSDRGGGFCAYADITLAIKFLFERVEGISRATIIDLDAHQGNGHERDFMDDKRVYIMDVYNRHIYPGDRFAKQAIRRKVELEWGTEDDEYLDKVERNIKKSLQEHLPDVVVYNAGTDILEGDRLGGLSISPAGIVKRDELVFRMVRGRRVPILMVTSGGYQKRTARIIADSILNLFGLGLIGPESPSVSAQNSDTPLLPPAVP
# Sodium-dependent noradrenaline transporter, sequence (P23975 whole entry): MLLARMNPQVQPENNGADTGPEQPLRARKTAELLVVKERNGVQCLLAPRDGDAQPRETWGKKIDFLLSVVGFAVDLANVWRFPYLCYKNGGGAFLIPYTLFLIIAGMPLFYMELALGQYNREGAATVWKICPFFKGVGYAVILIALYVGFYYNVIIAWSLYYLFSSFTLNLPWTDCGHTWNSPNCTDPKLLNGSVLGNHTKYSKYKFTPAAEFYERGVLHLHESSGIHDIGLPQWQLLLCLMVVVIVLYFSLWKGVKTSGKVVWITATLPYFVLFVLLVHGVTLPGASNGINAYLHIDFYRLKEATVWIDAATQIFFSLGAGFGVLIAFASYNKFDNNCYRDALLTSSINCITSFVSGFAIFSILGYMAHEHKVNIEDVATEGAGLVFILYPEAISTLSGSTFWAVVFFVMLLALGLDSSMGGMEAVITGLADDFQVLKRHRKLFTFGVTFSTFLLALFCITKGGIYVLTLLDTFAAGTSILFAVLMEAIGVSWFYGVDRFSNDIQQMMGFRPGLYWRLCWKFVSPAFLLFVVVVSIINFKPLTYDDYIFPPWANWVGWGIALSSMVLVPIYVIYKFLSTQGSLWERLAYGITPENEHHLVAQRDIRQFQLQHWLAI
# Alpha-2C adrenergic receptor, sequence (P18825 whole entry): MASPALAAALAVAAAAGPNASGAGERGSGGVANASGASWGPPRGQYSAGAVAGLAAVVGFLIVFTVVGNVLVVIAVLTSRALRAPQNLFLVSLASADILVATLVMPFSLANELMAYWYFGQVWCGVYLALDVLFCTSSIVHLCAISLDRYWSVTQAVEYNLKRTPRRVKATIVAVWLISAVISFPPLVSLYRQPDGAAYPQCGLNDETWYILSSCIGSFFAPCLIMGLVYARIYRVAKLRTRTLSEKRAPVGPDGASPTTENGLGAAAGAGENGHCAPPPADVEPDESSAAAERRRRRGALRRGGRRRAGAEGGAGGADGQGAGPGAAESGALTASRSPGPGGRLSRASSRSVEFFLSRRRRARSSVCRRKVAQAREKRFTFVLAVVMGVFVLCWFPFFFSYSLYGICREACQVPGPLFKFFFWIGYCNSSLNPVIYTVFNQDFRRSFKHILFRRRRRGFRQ
# Cannabinoid receptor 2, sequence (P34972 whole entry): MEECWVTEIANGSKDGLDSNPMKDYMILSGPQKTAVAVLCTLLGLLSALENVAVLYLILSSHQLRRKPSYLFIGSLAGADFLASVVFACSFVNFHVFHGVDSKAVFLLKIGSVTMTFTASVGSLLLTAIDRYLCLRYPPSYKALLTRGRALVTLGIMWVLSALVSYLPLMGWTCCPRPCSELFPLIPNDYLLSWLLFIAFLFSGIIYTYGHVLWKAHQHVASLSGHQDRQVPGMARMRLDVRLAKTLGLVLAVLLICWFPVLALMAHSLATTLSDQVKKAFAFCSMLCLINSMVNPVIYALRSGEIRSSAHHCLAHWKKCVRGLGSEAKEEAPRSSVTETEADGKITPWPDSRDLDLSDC
SMILES,Activity (Macrophage [1]) [a.u.],Activity (Macrophage [2]) [a.u.],Activity (Macrophage [3]) [a.u.],Activity (Macrophage [4]) [a.u.],Activity (Macrophage [5]) [a.u.],Activity (Macrophage [6]) [a.u.],Activity (Macrophage [7]) [a.u.],Activity (Macrophage [8]) [a.u.],Activity (Macrophage [9]) [a.u.],Activity (Macrophage [10]) [a.u.],Activity (Macrophage [11]) [a.u.],Activity (Macrophage [12]) [a.u.],Activity (Macrophage [13]) [a.u.],XC50 (Histone deacetylase 11) [µM],XC50 [14] [µM],XC50 [15] [µM],XC50 [16] [µM],XC50 [17] [µM],XC50 (Cannabinoid receptor 2) [µM],XC50 (D(2) dopamine receptor [18]) [µM],other results
CCOC(=O)CCNc1cc(N2CCc3ccccc3CC2)nc(-c2ccccn2)n1,9,285,107,372,1556795,5493,197,3241,50103,267,39793,8686,9678,–,–,–,–,–,–,–,–
CCOC(=O)CCNc1cc(N2CCc3ccccc3CC2)nc(-c2cccnc2)n1,466,835,253,748,5618140,5856,45,2862,49233,784,132521,10108,5331,–,–,–,–,–,–,–,–
O=C(O)CCNc1cc(N2CCc3ccccc3CC2)nc(-c2ccccn2)n1,–,–,–,–,–,–,–,–,–,–,–,–,–,> 300,> 32,> 40,> 50,> 32,> 32,> 100,XC50 (D(2) dopamine receptor [19]): > 100 µM; XC50 [20]: > 16 µM; XC50 (Mu-type opioid receptor): 50 µM; XC50 (hERG (KCNH2) [21]): 32 µM; XC50 (hERG (KCNH2) [22]): 8 µM; XC50 [23]: > 25 µM; XC50 [24]: > 100 µM; XC50 (OATP1B1 (SLCO1B1)): > 25 µM
O=C(O)CCNc1cc(N2CCc3ccccc3CC2)nc(-c2cccnc2)n1,–,–,–,–,–,–,–,–,–,–,–,–,–,> 300,> 32,> 40,> 50,> 32,> 32,> 100,XC50 (D(2) dopamine receptor [19]): > 100 µM; XC50 [20]: > 16 µM; XC50 (Mu-type opioid receptor): 63 µM; XC50 (hERG (KCNH2) [21]): > 100 µM; XC50 (hERG (KCNH2) [22]): > 50 µM; XC50 [23]: > 25 µM; XC50 [24]: > 100 µM; XC50 (OATP1B1 (SLCO1B1)): 20 µM

# Source: ChEMBL document CHEMBL5678807, “A selective jumonji H3K27 demethylase inhibitor modulates the proinflammatory macrophage response” (Nature, 2012)
